The conditions of data set [1]: cited from earlier work.
Data set [2] is described as follows: Thermo-Gravimetric Analysis (TGA) of the powder. Type of data set: physicochemical. Conditions: at processing temperatures and storage temperatures; TGA 25-300° C. @ 5° C./min. How it is done:
The powder obtained by the process according to the invention as described above and in the following examples was also subjected to Thermo-Gravimetric Analysis (TGA). […] Indeed, the DSC and XRPD experiments indicate that no polymorphic transition of crystalline form B occurs up to temperatures of ca. 170° C.
The TGA analysis data was obtained using a Mettler-Toledo TGA851e apparatus under the following parameters:
Temperature profile: 25-300° C. @ 5° C./min
Nitrogen purge gas, 50 ml/min
Aluminium pan, […], pierced prior to scan

Data set [3] is described as follows: DSC and XRPD experiments, polymorphic transition. Type of data set: physicochemical. How it is done:
The X-ray powder diffraction data was obtained by methods known in the art using a Bruker D8 Advance Powder Diffractometer with scintillation detector under the following parameters: Reflection mode Cu Kα radiation (1.5406 Å) Scanning range: 2-50 °2θ Step size: 0.02 °2θ Time per step: 2 s The powder obtained by the process according to the invention as described above and in the following examples was also subjected to Differential Scanning Calorimetry (DSC). The DSC thermal analysis data was obtained using a Mettler-Toledo DSC821e apparatus under the following parameters: • Temperature profile: 25-300° C. @ 5° C./min • Nitrogen purge gas, 50 ml/min • Aluminium pan, […], pierced prior to scan The powder obtained by the process according to the invention as described above and in the following examples was also subjected to Thermo-Gravimetric Analysis (TGA). […] Indeed, the DSC and XRPD experiments indicate that no polymorphic transition of crystalline form B occurs up to temperatures of ca. 170° C.

Consider `CCCc1nc(C(C)(C)O)c(C(=O)OCc2oc(=O)oc2C)n1Cc1ccc(-c2ccccc2-c2nnn[nH]2)cc1` [Olmesartan medoxomil, 2,3-dihydroxy-2-butenyl 4-(1-hydroxy-1-methylethyl)-2-propyl-1-[p-(o-tetrazol-5-yl-phenyl)benzyl]imidazole-5-carboxylate cyclic 2,3-carbonate], for which, in data set [1], the aqueous solubility entry is “very low”. As for `CCCc1nc(C(C)(C)O)c(C(=O)OCc2oc(=O)oc2C)n1Cc1ccc(-c2ccccc2-c2nnn[nH]2)cc1` [crystalline form B, 2,3-dihydroxy-2-butenyl 4-(1-hydroxy-1-methylethyl)-2-propyl-1-[p-(o-tetrazol-5-yl-phenyl)benzyl]imidazole-5-carboxylate cyclic 2,3-carbonate], the “chemical stability, degradation by conversion to other polymorphic forms” value in data set [2] is given as “chemically stable”. In addition, in data set [3], the “temperature up to which no polymorphic transition occurs” value was “ca. 170 °C”.
